Laboratory results: patent publication US10968236B2, “TYK2 inhibitors and uses thereof” (Nimbus Lakshmi, Inc., priority 2015, dated 2021)

Legend:
[1] = test system: GM-CSF induced pSTAT5 (JAK2-pSTAT5); experiment: GM-CSF Induced pSTAT5 in human PBMC; assay type: cell-based; conditions: GM-CSF 5 ng/mL
Description: GM-CSF Induced pSTAT5 in human PBMC. Cells are prepared for analysis as in the above procedure and 15 μl of GM-CSF (final concentration 5 ng/mL) is added for 20 minutes prior to pSTAT5 and total STAT5 analysis using cell lysates prepared and analyzed by MSD reagents as per manufacturer protocol. The final DMSO concentration of compound in the assay is 0.1%.
(§1) The compound numbers correspond to the compound numbers in Table 1. Compounds having an activity designated as “A” provided an EC50≤2 μM; compounds having an activity designated as “B” provided a EC50 of 2-20 μM, and compounds having an activity designated as “C” provided an EC50>20 μM.

[2] = test system: IL-12 induced pSTAT4 (Tyk2-pSTAT4); experiment: IL-12 Induced pSTAT4 in human PBMC; assay type: cell-based; conditions: IL-12 1.7 ng/mL
Description: IL-12 Induced pSTAT4 in human PBMC. Human PBMC are isolated from buffy coat and are stored frozen for assays as needed. Cells for assay are thawed and resuspended in complete media containing serum, then cells are diluted to 1.67 E6 cells/ml so that 120 μl per well is 200,000 cells. 15 μl of compound or DMSO is added to the well at the desired concentrations and incubated at 1 hr at 37 C. 15 μl of stimulus (final concentration of 1.7 ng/mL IL-12) is added for 30 minutes prior to pSTAT4 and total STAT4 analysis using cell lysates prepared and analyzed by MSD reagents as per manufacturer protocol. The final DMSO concentration of compound in the assay is 0.1%.
as §1

TYK2 = TYK2 (Homo sapiens (Human), UniProt P29597); experiment: Tyk2 activity inhibition assay (radioactive kinase / Caliper assay); assay type: biochemical
Chain of TYK2 (P29597 whole entry): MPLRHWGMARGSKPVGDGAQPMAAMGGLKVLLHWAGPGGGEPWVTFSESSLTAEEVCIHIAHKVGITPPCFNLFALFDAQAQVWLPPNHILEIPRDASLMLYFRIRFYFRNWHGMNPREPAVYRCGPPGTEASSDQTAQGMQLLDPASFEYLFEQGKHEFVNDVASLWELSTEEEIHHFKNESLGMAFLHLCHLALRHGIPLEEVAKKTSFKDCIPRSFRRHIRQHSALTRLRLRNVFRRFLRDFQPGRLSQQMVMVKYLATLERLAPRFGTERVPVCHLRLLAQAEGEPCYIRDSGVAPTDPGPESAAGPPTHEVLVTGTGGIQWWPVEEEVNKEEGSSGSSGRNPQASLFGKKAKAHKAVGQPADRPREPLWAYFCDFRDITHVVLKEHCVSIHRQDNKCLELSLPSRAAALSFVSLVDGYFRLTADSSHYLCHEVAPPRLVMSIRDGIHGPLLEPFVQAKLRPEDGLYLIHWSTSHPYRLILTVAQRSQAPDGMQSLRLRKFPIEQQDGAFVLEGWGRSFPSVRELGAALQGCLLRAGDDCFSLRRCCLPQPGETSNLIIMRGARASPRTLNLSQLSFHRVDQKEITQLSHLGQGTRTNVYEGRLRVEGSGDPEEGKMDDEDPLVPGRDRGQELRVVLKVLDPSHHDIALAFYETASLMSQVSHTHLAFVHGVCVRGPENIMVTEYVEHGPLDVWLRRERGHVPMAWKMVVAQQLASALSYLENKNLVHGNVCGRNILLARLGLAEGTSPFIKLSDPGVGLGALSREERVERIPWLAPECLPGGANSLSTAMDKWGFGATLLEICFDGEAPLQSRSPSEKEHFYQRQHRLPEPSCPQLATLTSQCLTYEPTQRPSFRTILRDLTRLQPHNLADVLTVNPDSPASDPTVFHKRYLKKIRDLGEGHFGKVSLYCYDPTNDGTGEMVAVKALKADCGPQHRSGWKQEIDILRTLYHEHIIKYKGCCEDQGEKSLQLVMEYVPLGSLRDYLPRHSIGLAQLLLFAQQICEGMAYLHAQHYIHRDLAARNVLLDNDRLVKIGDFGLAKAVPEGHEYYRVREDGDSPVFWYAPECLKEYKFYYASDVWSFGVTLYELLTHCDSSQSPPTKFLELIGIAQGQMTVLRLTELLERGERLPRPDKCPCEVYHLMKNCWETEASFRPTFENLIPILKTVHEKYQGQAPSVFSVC

JAK2 = JAK2 (Homo sapiens (Human), UniProt O60674); experiment: JAK2 activity inhibition assay (radioactive kinase / Caliper assay); assay type: biochemical
Chain of JAK2 (O60674 whole entry): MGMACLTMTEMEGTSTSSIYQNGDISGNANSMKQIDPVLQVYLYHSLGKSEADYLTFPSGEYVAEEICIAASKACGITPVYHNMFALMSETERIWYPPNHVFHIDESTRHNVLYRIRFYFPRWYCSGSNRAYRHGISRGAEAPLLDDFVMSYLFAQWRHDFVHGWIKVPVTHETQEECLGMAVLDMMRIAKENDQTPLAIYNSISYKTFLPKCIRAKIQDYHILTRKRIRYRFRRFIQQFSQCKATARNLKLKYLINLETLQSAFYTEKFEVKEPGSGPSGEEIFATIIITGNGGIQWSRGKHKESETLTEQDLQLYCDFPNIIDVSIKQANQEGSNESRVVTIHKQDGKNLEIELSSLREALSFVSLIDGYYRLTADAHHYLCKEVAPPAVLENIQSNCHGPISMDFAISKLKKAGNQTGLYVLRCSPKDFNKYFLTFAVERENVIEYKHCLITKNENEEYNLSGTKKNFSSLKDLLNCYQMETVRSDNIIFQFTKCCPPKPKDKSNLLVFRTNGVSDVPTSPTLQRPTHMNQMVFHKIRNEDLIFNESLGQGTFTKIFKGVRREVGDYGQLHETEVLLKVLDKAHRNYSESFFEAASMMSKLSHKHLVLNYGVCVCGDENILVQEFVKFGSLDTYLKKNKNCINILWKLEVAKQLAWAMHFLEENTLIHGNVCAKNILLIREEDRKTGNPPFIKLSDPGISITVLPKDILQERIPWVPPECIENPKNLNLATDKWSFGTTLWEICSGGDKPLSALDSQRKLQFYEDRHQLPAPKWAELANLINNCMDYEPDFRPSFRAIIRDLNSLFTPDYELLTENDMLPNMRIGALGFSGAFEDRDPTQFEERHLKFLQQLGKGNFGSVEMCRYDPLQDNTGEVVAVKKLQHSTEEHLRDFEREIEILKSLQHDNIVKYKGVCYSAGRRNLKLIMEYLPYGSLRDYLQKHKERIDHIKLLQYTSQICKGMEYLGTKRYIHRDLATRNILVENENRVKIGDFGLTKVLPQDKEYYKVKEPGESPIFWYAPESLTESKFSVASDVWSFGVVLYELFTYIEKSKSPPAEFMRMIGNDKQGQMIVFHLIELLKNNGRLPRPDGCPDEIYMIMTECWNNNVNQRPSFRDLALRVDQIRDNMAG

EC50 [1] | EC50 [2] | Ki (TYK2) | Ki (JAK2) | Compound
2000 to 20000 nM | ≤ 2000 nM | ≤ 10 nM | 10 to 100 nM | N#Cc1cccc(F)c1-c1cc(Nc2ccc(N3CCOC4(CC4)C3)nc2)c2c(n1)CNC2=O [Compound I-79, 2-(4-((6-(4-oxa-7-azaspiro[2.5]octan-7-yl)pyridin-3-yl)amino)-5-oxo-6,7-dihydro-5H-pyrrolo[3,4-b]pyridin-2-yl)-3-fluorobenzonitrile]
2000 to 20000 nM | ≤ 2000 nM | ≤ 10 nM | 10 to 100 nM | O=C1NCc2nc(-c3c(F)cccc3F)cc(Nc3ccc(N4C[C@H]5COC[C@H]5C4)cn3)c21 [Compound I-59, 2-(2,6-difluorophenyl)-4-((5-((3aR,6aS)-tetrahydro-1H-furo[3,4-c]pyrrol-5(3H)-yl)pyridin-2-yl)amino)-6,7-dihydro-5H-pyrrolo[3,4-b]pyridin-5-one]
2000 to 20000 nM | ≤ 2000 nM | ≤ 10 nM | ≤ 10 nM | CCNC(=O)C(C)(C)c1ccc(Nc2cc(-c3c(F)cccc3F)nc3c2C(=O)NC3)cc1 [Compound I-67, 2-(4-((2-(2,6-difluorophenyl)-5-oxo-6,7-dihydro-5H-pyrrolo[3,4-b]pyridin-4-yl)amino)phenyl)-N-ethyl-2-methylpropanamide]
